Test results published in patent EP0487382A1, “Use of buflomedil for the protection of the myocardium by coronary angioplasty” (LABORATOIRE L. LAFON, priority 1990, dated 1992).

Key:
chiens [1] = test: Coronary balloon angioplasty occlusion (15 min) and reperfusion in anaesthetised dogs, first series; type: in vivo
Experimental: (§1) 1 - On a réalisé des essais comparatifs chez des chiens auxquels on a administré par voie intraveineuse en 15 minutes : • soit du buflomédil (chlorhydrate) à la dose de 10 mg/kg; • soit un placebo.
Le protocole opératoire était le suivant :
(§2) les chiens ont reçu une prémédication consistant en 1,0 mg par kg de sulfate de morphine après une nuit de diète ainsi que 325 mg d'aspirine par voie orale.
(§3) Les chiens ont été anesthésiés avec 12,5 mg/kg de thiopental et 72 mg/kg de chloralose par voie intraveineuse. On met en place un cathéter au niveau de l'artère fémorale pour la mesure de la pression artérielle et une canule sur la veine fémorale pour l'administration du produit à tester. L'artère carotide gauche reçoit une canule pour la mise en place du cathéter d'angioplastie, tandis que l'on met en place un cathéter au niveau du ventricule gauche via l'artère fémorale contralatérale.
Les animaux sont alors héparinisés avec 500 unités U.I. par kg par voie I.V. On procède alors à l'administration du produit à tester ou du placebo à raison, pour le buflomédil, de 10 mg par mn. On administre ensuite de la lidocaïne par voie I.V. à raison de 1 mg/kg sous forme de bolus, puis par perfusion à raison de 1 mg par mn. […]

chiens [2] = test: Coronary balloon occlusion (15 min) with follow-up of reperfusion in dogs, second series; type: in vivo; conditions: 10 mg/kg i.v.
Experimental: as §1, §2, §3
Les animaux sont alors héparinisés avec 500 unités U.I. par kg par voie I.V. On procède alors à l'administration du produit à tester ou du placebo à raison, pour le buflomédil, de 10 mg par mn. On administre ensuite de la lidocaïne par voie I.V. à raison de 1 mg/kg sous forme de bolus, puis par perfusion à raison de 1 mg par mn.
30 mn après la fin de la perfusion, on met en place un ballonnet d'angioplastie de 2,5-3,5 mm choisi en fonction de la taille des artères coronaires dans l'artère coronaire descendante antérieure gauche. Le ballon a été gonflé à une pression de 4.10⁵ Pa pendant 15 mn.
2 - Dans une deuxième série d'essais comparatifs, on a utilisé le même mode opératoire et les mêmes produits (buflomédil chlorhydrate à la dose de 10 mg/kg d'une part et placebo d'autre part) et on a suivi la reperfusion après 15 minutes d'occlusion avec un ballonnet.

[3] = at the end of the occlusion, versus placebo

COc1cc(OC)c(C(=O)CCCN2CCCC2)c(OC)c1 [buflomédil, 4-(1-pyrrolidinyl)-1-(2,4,6-triméthoxyphényl)-1-butanone]
flux sanguins tissulaires au niveau du myocarde (chiens [1]; 10 mg/kg i.v., measured during ischaemia in the ischaemic regions, versus placebo (Figure)): plus élevés | fibrillation ventriculaire lors de la reperfusion (chiens [1]; buflomédil (chlorhydrate) 10 mg/kg i.v. over 15 min, 15 min balloon occlusion, placebo: 4 cas sur 10): n'a pas observé de fibrillation ventriculaire | fraction d'éjection (chiens [2]; 30 minutes after reperfusion, placebo 69 %): 89 % de la valeur normale du groupe | fraction d'éjection (chiens [2]; 60 minutes after reperfusion, placebo 74 %): 95% | zone de dysfonctionnement (chiens [2]; after reperfusion, versus placebo): diminution | fraction d'éjection (chiens [2]; [3]): n'a pas observé à la fin de l'occlusion de différence | perfusion sanguine transmurale (chiens [2]; [3]): n'a pas observé à la fin de l'occlusion de différence | flux pendant la reperfusion (chiens [2]; during reperfusion, versus placebo): flux accru
